Experimental data: ChEMBL document CHEMBL1201862, “PubChem BioAssay data set” (2004)
The source made the active and inactive calls.

How the values were obtained:
[1] = test system: Vero; assay: viability loss in Vero cells – cell-based, plate reader, cherry-pick samples, cytotoxicity control, dose response (AID 687020); type: functional; conditions: Chlorocebus sabaeus
[2] = Trypanosoma cruzi growth suppression in host cells – NIH3T3 host cells, beta-gal luminescence, confirmation (AID 2044); type: functional, cell-based;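 further: intracellular parasites grown in NIH/3T3 mouse fibroblasts as host cells; luminescent beta-galactosidase reporter signal from transgenic T. cruzi replicating inside host cells; inhibitors lower the luminescence signal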
[3] = NIH3T3 cell viability loss – ATP luminescence, mouse fibroblasts, counter-screen, dose response (AID 2010); type: functional, cell-based;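 further: cells exposed to compound for about 90 hours before reading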
[4] = Luminescence Cell-Based Dose Retest to Confirm Inhibitors of Cancer Stem Cells. [Related pubchem assays (depositor defined):AID2717, AID2721]; type: functional; conditions: Homo sapiens
[5] = target: T1, Heat shock factor protein 1 (Mus musculus, UniProt P38532); assay: enhancement of HSF1-driven luciferase signal – cell-based, NIH3T3, luminescence, dose retest, confirmation (AID 435004); type: functional;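 further: stress induced by proteasome inhibitor MG132 added 30 min after compound; luciferase reporter driven by HSF1 response element in NIH3T3 cells; actives raise luminescence as potentiators of the MG132 stress response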
T1 sequence (P38532 whole entry): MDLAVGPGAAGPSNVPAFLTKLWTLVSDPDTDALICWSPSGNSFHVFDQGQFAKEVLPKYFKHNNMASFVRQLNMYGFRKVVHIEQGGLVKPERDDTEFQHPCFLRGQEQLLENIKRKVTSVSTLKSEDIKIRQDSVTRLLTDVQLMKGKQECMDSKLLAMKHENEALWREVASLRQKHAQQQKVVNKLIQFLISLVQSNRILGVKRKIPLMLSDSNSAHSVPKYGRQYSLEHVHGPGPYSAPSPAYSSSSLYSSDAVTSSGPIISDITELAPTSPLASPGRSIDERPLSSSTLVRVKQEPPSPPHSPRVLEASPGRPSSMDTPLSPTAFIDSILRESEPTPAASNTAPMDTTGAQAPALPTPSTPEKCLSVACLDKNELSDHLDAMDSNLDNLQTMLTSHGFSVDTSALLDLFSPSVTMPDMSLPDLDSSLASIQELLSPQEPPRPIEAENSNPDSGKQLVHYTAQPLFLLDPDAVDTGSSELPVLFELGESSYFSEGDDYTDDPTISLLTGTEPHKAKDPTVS

[6] = target: Heat shock protein HSP 90-alpha (Homo sapiens, UniProt P07900); type: functional, organism-based
[7] = target: T2, High affinity choline transporter 1 (Homo sapiens, UniProt Q9GZV3); assay: human choline transporter blockers, potency – cell-based, 5-point CRC, membrane potential dye, dose response (AID 504840); type: functional
T2 sequence (Q9GZV3 whole entry): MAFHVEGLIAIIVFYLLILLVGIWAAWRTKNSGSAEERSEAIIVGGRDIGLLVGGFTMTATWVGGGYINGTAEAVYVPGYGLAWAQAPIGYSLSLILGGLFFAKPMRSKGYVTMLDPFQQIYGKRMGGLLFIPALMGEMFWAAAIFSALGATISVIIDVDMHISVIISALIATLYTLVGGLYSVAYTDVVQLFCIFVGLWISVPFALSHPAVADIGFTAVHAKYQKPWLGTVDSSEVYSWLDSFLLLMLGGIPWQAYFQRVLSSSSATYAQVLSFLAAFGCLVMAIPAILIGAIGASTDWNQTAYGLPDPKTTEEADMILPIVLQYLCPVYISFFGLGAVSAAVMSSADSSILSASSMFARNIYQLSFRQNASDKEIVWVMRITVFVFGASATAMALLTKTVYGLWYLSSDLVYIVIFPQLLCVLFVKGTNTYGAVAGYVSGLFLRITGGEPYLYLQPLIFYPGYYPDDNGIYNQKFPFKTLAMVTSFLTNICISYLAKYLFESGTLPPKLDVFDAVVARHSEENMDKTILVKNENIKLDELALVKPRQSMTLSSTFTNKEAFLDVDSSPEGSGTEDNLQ

[8] = test system: Vero; assay: viability of Vero cells under compound – cytotoxicity control for flavivirus capping enzyme inhibitors (AID 588742); type: functional; conditions: Chlorocebus sabaeus
[9] = test system: Vero; assay: cells; type: functional; conditions: Chlorocebus sabaeus
[10] = target: Genome polyprotein (dengue virus type 2, UniProt P29990); assay: flavivirus cap methylation enzyme inhibition – biochemical, confirmation dose response, primary screen (AID 588689); type: functional
[11] = target: T3, Polyadenylate-binding protein 1 (Homo sapiens, UniProt P11940); assay: MLLE binding blockers, Cy5 peptide tracer – biochemical, fluorescence polarization, Cy5-PAM2 peptide, secondary, miRNA deadenylation inhibitor project, dose response (AID 602260); type: functional; conditions: read-out: IC50_Mean
[12] = target: T3, Polyadenylate-binding protein 1; assay: MLLE domain peptide-binding blockers, IC50 – biochemical, fluorescence polarization, FITC-PAM2 peptide, dose response (AID 602259); type: functional; conditions: read-out: IC50_Mean
[13] = test system: CHO-K1; assay: (§1) Counterscreen for antagonists of the orexin 1 receptor (OX1R; HCRTR1): Homogeneous time resolved fluorescence (HTRF)-based cell-based dose response assay to identify antagonists of the parental CHO-K1 cell line. [Related pubchem assays (depositor defined):AID434989, AID435008, AID463079, AID485270, AID492963, AID492964, AID492965, AID493232, AID504699, AID504701]; type: functional; conditions: Cricetulus griseus
[14] = as §1, with “Fluorescence-based” for “Homogeneous time resolved fluorescence (HTRF)-based”, “cell-based high throughput” for “cell-based”, “CHO” for “CHO-K1”; type: functional
[15] = target: T4, Orexin/Hypocretin receptor type 1 (Homo sapiens, UniProt O43613); assay: Homogeneous Time Resolved Fluorescence (HTRF)-based cell-based high throughput dose response assay for antagonists of the orexin 1 receptor (OX1R; HCRTR1). [Related pubchem assays (depositor defined):AID434989, AID435008, AID463079, AID485270, AID492963, AID492964, AID492965, AID493232, AID504717, AID504718]; type: functional
T4 sequence (O43613 whole entry): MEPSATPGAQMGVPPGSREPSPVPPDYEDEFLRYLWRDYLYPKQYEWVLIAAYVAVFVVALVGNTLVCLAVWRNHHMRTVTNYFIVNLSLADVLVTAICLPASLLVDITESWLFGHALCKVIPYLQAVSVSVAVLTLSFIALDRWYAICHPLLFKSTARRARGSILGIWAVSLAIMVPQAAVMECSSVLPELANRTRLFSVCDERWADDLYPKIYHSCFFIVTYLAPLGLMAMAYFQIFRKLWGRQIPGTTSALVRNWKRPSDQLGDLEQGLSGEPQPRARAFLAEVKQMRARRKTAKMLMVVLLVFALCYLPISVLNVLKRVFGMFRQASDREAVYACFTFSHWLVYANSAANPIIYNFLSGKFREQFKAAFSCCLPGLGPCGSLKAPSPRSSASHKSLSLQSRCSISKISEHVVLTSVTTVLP

[16] = target: T4, Orexin/Hypocretin receptor type 1; assay: Fluorescence-based cell-based high throughput dose response assay for antagonists of the orexin 1 receptor (OX1R; HCRTR1). [Related pubchem assays (depositor defined):AID434989, AID435008, AID463079, AID485270, AID492963, AID492964, AID492965, AID493232, AID504717, AID504718]; type: functional
[17] = target: T5, Orexin receptor type 2 (Homo sapiens, UniProt O43614); assay: Counterscreen assay for antagonists of the orexin 1 receptor (OX1R; HCRTR1): Fluorescence-based cell-based dose response assay for antagonists of the orexin 2 receptor (OX2R; HCRTR2), run by assay provider.; type: functional
T5 sequence (O43614 whole entry): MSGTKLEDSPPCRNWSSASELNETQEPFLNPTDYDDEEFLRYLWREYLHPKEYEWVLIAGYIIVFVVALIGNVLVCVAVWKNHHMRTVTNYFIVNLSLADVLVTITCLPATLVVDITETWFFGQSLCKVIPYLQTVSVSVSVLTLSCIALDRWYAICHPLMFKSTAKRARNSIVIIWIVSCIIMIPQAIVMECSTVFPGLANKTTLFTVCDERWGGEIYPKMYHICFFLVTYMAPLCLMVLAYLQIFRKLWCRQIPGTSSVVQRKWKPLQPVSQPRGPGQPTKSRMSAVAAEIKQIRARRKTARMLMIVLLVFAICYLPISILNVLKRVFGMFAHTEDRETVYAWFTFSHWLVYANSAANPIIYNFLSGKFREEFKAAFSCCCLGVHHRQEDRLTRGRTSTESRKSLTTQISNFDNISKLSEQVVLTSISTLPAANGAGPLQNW

[18] = target: T5, Orexin receptor type 2; assay: Counterscreen assay for antagonists of the orexin 1 receptor (OX1R; HCRTR1): Homogeneous Time Resolved Fluorescence (HTRF)-based cell-based dose response assay for antagonists of the orexin 2 receptor (OX2R; HCRTR2), run by assay provider.; type: functional
[19] = target: T6, DNA repair and recombination protein RAD54-like (Homo sapiens, UniProt Q92698); assay: RAD54 Holliday junction migration blockers – biochemical, fluorescence, cherry-picked samples, dose series, confirmation (AID 651657); type: functional
T6 sequence (Q92698 whole entry): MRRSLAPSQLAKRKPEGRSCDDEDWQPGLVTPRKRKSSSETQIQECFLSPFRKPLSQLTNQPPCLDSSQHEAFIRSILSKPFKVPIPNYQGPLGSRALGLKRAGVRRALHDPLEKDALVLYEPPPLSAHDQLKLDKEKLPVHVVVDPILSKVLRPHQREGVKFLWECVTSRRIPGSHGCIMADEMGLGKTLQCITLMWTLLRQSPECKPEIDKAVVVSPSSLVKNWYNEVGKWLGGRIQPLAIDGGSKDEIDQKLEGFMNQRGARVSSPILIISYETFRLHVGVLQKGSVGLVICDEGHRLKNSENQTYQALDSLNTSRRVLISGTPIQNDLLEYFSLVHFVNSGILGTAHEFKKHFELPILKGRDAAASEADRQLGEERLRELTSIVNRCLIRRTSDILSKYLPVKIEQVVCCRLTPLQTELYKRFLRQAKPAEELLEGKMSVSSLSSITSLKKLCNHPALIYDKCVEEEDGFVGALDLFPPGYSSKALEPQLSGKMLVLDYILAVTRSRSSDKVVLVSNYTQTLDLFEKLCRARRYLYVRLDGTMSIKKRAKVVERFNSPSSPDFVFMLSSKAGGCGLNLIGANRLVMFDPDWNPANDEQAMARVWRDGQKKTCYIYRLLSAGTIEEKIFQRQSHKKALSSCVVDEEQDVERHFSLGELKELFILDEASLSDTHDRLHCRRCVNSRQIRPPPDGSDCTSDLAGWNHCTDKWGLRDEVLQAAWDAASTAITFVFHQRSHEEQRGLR

T3 sequence (P11940 whole entry, the tested form may be a part): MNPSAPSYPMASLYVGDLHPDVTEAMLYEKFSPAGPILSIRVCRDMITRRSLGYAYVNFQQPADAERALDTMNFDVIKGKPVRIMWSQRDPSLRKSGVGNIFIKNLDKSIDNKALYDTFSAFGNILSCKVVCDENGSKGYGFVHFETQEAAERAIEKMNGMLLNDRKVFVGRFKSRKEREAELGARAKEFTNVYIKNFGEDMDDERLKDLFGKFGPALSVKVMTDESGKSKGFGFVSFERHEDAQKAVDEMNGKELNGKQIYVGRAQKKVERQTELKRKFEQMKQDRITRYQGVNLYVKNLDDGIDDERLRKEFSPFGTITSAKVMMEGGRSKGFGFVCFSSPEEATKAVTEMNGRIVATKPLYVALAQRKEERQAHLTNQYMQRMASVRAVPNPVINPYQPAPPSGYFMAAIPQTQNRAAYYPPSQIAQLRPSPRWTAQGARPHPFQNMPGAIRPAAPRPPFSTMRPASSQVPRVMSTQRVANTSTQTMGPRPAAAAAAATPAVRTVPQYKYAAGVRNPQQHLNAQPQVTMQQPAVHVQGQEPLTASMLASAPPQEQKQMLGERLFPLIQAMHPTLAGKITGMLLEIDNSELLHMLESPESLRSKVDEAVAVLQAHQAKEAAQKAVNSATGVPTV
Genome polyprotein, sequence (P29990 2492-3391 limits assumed): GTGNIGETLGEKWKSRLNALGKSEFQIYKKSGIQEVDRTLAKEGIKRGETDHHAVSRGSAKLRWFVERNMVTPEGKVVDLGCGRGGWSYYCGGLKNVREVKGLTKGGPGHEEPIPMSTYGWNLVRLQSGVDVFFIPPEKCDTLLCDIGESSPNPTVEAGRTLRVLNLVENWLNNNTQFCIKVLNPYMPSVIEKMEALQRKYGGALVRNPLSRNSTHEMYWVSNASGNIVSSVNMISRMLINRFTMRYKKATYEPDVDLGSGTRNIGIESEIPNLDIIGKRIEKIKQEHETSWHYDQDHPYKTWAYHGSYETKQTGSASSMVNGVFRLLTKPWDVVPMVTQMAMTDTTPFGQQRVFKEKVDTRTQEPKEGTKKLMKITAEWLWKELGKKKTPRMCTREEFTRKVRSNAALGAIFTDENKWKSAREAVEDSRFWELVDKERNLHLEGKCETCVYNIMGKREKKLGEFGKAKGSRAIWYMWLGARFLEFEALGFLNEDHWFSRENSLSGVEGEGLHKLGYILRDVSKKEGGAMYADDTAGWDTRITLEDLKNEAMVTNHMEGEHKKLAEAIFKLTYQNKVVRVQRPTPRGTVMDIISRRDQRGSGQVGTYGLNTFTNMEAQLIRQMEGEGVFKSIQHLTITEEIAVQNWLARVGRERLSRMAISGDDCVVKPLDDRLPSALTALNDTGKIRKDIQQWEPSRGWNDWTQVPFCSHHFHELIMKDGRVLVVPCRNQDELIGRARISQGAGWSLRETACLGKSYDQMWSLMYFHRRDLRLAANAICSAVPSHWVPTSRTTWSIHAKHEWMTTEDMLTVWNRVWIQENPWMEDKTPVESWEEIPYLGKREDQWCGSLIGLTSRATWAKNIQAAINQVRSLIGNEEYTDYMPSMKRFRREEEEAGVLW

| Compound | IC50 [13] | IC50 [14] | IC50 [15] | IC50 [16] | IC50 [17] | IC50 [18] | also measured |
| --- | --- | --- | --- | --- | --- | --- | --- |
| Cc1c(C(=O)NCc2cccnc2)oc2ccc(S(=O)(=O)N3CC(C)CC(C)C3)cc12 (stereo unspecified) |  |  |  |  |  |  | AC50 [1]: 32.4 µM (active) |
| CC(C)(C)c1ccc(C(=O)CC(Sc2ccc(Cl)cc2)C(=O)O)cc1 (stereo unspecified) |  |  |  |  |  |  | EC50 [2]: 2.02 µM (active); EC50 [3]: > 60 µM (not active); AC50 [4]: 4.12 µM (active); EC50 [5]: 137 µM (active); AC50 [6]: 4.71 µM (active); IC50 [7]: 12.6 µM (active); CC50 [8]: 35.9 µM (active); CC50 [9]: 23.2 µM (active); IC50 [10]: 38.1 µM (active); IC50 [11]: > 66 µM (inactive); IC50 [12]: > 66 µM (inactive) |
| CC(=C/c1ccccc1)/C=C1/SC(N2CCOCC2)=NC1=O | 40.7 µM (inactive) | > 49.8 µM (inactive) | 0.51 µM (active) | 3.82 µM (active) | > 88.8 µM (inactive) | 26 µM (inactive) |  |
| c1c[nH]c(CN2CCN(Cc3ncc[nH]3)CC2)n1 |  |  |  |  |  |  | AC50 [19]: 63.3 µM (active) |
| Cc1cc(C)n2nc(-c3cccc(Br)c3)cc2n1 | > 66.2 µM (inactive) | > 49.7 µM (inactive) | 2.05 µM (active) | 9.69 µM (active) | > 88.8 µM (inactive) | > 50 µM (inactive) |  |
| Cc1noc(C)c1COC(=O)c1ccc2c(c1)S(=O)(=O)c1ccccc1C2=O | 18.5 µM (inactive) | > 49.7 µM (inactive) | 1.2 µM (active) | 4 µM (active) | > 88.8 µM (inactive) | > 50 µM (inactive) |  |
